The test system of test [1] is Rb phosphorylation at S780 in CCNE1-non-amplified cell lines (COV504 and OV56). Briefly: Western blot of Rb phosphorylation at S780, CCNE1-non-amplified cell lines. The conditions noted are these: various doses, 1 or 15 hours. Format: cell-based, human. As for the experimental part: (§1) The effect of CDK4/6-inhibition on Rb phosphorylation at 5780 in CCNE1-amplified versus CCNE1-non-amplified cell lines was evaluated. […] One or 15 hours after treatment, the cells were harvested and total protein was extracted and analyzed by western blot (FIG. 8).
(§2) Whole cell extracts were prepared using RIPA buffer (Thermo Scientific, 89900) with a Halt Protease and Phosphatase Inhibitor Cocktail (Thermo Scientific, 78440). Protein concentration was quantified with a BCA Protein Assay Kit (Thermo Scientific, 23225) and 40 μg of protein lysates were loaded for SDS-PAGE using precast gradient gels (Bio-Rad, Hercules, No. 456-1094). Samples were diluted in 5× Laemmli buffer (300 mM Tris-HCl pH 6.8, 10% SDS (w/v), 5% 2-mercaptoethanol, 25% glycerol (v/v), 0.1% bromophenol blue w/v) and boiled for 5 minutes. […] of proteins were separated by 8-15% SDS-PAGE and transferred onto polyvinylidene fluoride (PVDF) membranes. Unspecific binding sites on the PVDF membranes were blocked with 5% non-fat milk in TBST (20 mM Tris-HCl, pH 7.6, 137 mM NaCl, 1% Tween-20). […] Images were captured by Luminescence/Fluorescence Imaging System Odyssey CLx Imager (LI-COR).

The subject of test [2] is Rb phosphorylated on serine 780 in CCNE1 amplified COV318 cells. Nature of the test: CDK2 pRb (S780) HTRF cellular assay. It is filed as cell-based. The settings on record: Homo sapiens, overnight treatment, read-out: IC50 in p-RB S780 HTRF cellular assay. As for the experimental part: CDK2 pRb (5780) HTRF cellular assay enables the quantitative detection of Rb phosphorylated on […] in CCNE1 amplified COV318 cells. The assay comprised two antibodies: Europium cryptate labeled anti-Phospho-Rb […] antibody (donor) and d2 labeled anti-Rb antibody (acceptor). In brief, COV318 cells were seeded into the wells of 96-well plate at a density of 25,000 per well with 9-point, 3-fold serial diluted compounds and cultured overnight at 37 degree with 5% CO2. The final concentrations of compounds start from 3 μM. […] After 2h of incubation at room temperature, HTRF signals were measured on the PHERAstar microplate reader (BMG Labtech), using 340 nm as excitation wavelength, a 620 nm filter for the Europium donor fluorescence, and a 665-nm filter for the acceptor fluorescence detection. HTRF signals were calculated as the HTRF ratio (ratio of fluorescence measured at 665 nm and 620 nm)×10000.
For orientation: TR-FRET usually uses a lanthanide donor and a delayed reading to cut background.

Test [3] deals with CCNE1-amplified cell lines (COV318, OVCAR3). Nature of the test: Cell cycle analysis by FACS upon CDK4/6 inhibition, CCNE1-amplified cell lines. Format: cell-based, human. As for the experimental part: (§3) The effect of CDK4/6-inhibition in CCNE1-amplified versus CCNE1-non-amplified cell lines was evaluated.
(§4) A similar experiment was performed in a larger set of CCNE1-amplified cell lines (COV318 and OVCAR3) and CCNE1-non-amplified cell lines (COV504, OV56, and Igrov1) (FIG. 6).
(§5) The complete growth medium was supplemented with 10% FBS, 0.1 mM non-essential amino acids, 2 mM L-glutamine, 100 units/mL penicillin G and 100 μg/mL streptomycin in 37° C. humidified incubator and an atmosphere of 5% CO2 in air. Fu-OV1 line was purchased from Leibniz-Institute DSMZ—German Collection of Microorganisms and Cell Cultures; MKN1 was purchased from Japanese Cancer Research Resources Bank; and the rest of cell lines were purchased from American Type Culture Collection.
(§6) Bulk DNA was stained with DAPI. Compound-treated and DMSO treated control cells were acquired with CytoFlex (Beckman Coulter) and were analyzed using the FlowJo software.

Test [4] concerns Rb phosphorylation at S780 in CCNE1-amplified cell lines (OVCAR3 and COV318). Briefly: Western blot of Rb phosphorylation at S780, CCNE1-amplified cell lines. Format: cell-based, human. The settings on record: various doses, 1 or 15 hours. As for the experimental part: as §1, §2
(In general: A western blot detects proteins with antibodies after separation by electrophoresis.)

For test [5], the system named is CCNE1-non-amplified cell lines (COV504, OV56, Igrov1). Nature of the test: Cell cycle analysis by FACS upon CDK4/6 inhibition, CCNE1-non-amplified cell lines. It is filed as cell-based, human. The method, then: as §3, §4, §5, §6
A general note: A flow cytometer gives signals particle by particle.

Test [6] relates to CCNE1 amplified COV318 cells. Nature of the test: Cell cycle analysis by FACS after p16 knockdown and CDK2 inhibitor treatment. It is filed as cell-based, human. The conditions noted are these: 100 nM, 16 hours. The method, then:
To confirm the role of p16 in CDK2-sensitivity of CCNE-amplified cells, COV318 cells were treated with control or p16-specific siRNA.
Human cyclin E1 (CCNE1) amplified ovarian cell lines OVCAR3, COV318, Fu-OV1, endometrial cell line KLE, gastric cell lines MKN1, AGS, NCIN87, and CCNE1 non-amplified ovarian cell lines COV504, OV56, Igrov1 were cultured in RPMI 1640 medium. The complete growth medium was supplemented with 10% FBS, 0.1 mM non-essential amino acids, 2 mM L-glutamine, 100 units/mL penicillin G and 100 μg/mL streptomycin in 37° C. humidified incubator and an atmosphere of 5% CO2 in air. Fu-OV1 line was purchased from Leibniz-Institute DSMZ—German Collection of Microorganisms and Cell Cultures; MKN1 was purchased from Japanese Cancer Research Resources Bank; and the rest of cell lines were purchased from American Type Culture Collection. For transfection, cells were seeded into 6-well for 24 hours and transiently transfected by Lipofectamine 2000 Reagent (Thermo Fisher, 11668027). […]
Bulk DNA was stained with DAPI. Compound-treated and DMSO treated control cells were acquired with CytoFlex (Beckman Coulter) and were analyzed using the FlowJo software. […]

In another test the target is CDK2/Cyclin E1 (Homo sapiens (Human), UniProt P24941). Nature of the test: CDK2/Cyclin E1 HTRF enzyme activity assay (Example A). Format: biochemical. The settings on record: 1 mM ATP. The method, then: Assays were conducted in white 384-well polystyrene plates in a final reaction volume of 8 μL. […] HTRF signals were read after 1 hour at room temperature on a PHERAstar FS plate reader (BMG Labtech). Data was analyzed with IDBS XLFit and GraphPad Prism 5.0 software using a three or four parameter dose response curve to determine IC50 for each compound.

Where only a bound is given, the exact number is not on record here.

Broadly, the IC50 is the concentration at which inhibition is half-maximal. In the case of `CC(=O)c1c(C)c2cnc(Nc3ccc(N4CCNCC4)cn3)nc2n(C2CCCC2)c1=O` [Palbociclib], the entries for the “Rb phosphorylation at S780 (western blot)” value in test [1] and in test [4] were “blocked Rb phosphorylation” and “not in CCNE1-amplified cell lines”, respectively. The IC50 in test [2] was above 3000 nM. In addition, the “Inhibition of proliferation (cell cycle analysis by FACS)” value in test [3] (CCNE1-amplified cells (OVCAR3), increasing concentrations, 16 hours) is listed as “not in CCNE1-amplified cells”; in test [5] (CCNE1-non-amplified cells (COV504), increasing concentrations, 16 hours) it was “dose-dependent inhibition of the proliferation”. Further, the “Percentage of cells at the S phase as compared to DMSO” value in test [3] (COV318 and OVCAR3, 16 hours after treatment) is listed as “not significantly different”; in test [5] (COV504, OV56, Igrov1, 16 hours after treatment) it was “decreased in CCNE1-non-amplified cell lines in a dose-dependent fashion”.
With `C[C@@]1(O)CCC[C@H]1n1c(=O)ccc2cnc(NC3CCN(S(C)(=O)=O)CC3)nc21` [Compound A, 8-((1R,2R)-2-hydroxy-2-methylcyclopentyl)-2-((1-(methylsulfonyl)piperidin-4-yl)amino)pyrido[2,3-d]pyrimidin-7(8H)-one], the “Percentage of S phase cells” value in test [6] (control siRNA-treated COV318 cells) is reported as “significantly decreased”. Moreover, the “Percentage of S phase cells as compared to DMSO control” value in test [6] (p16 knocked down COV318 cells) was “not significantly decreased”. Further, the IC50 in test [2] came out at 37 nM.
On CDK2/Cyclin E1, `CS(=O)(=O)N1CCC(Nc2ncc(C(F)(F)F)c(-c3cn(-c4ccc(C#N)cc4Cl)cn3)n2)CC1` [Example 1, 3-Chloro-4-(4-(2-((1-(methylsulfonyl)piperidin-4-yl)amino)-5-(trifluoromethyl)pyrimidin-4-yl)-1H-imidazol-1-yl)benzonitrile] showed an IC50 of at most 50 nM.
Consider `CS(=O)(=O)N1CCC(Nc2ncc(C(F)(F)F)c(-c3cn(-c4ccc(CN5CC6CCC5CO6)cc4Cl)cn3)n2)CC1` (stereo not shown) [Example 216, 4-(1-(4-((2-Oxa-5-azabicyclo[2.2.2]-octan-5-yl)methyl)-2-chlorophenyl)-1H-imidazol-4-yl)-N-(1-(methylsulfonyl)-piperidin-4-yl)-5-(trifluoromethyl)-pyrimidin-2-amine], for which, on CDK2/Cyclin E1, the half-inhibitory concentration (IC50) is at most 50 nM.
The same measure, in the same setting: the figure for `C[C@H]1CN(c2ccc(-n3cnc(-c4nc(NC5CCN(S(C)(=O)=O)CC5)ncc4C(F)(F)F)c3)c(Cl)c2)CCN1` [Example 140, (S)-4-(1-(2-Chloro-4-(3-methyl-piperazin-1-yl)-phenyl)-1H-imidazol-4-yl)-N-(1-(methyl-sulfonyl)piperidin-4-yl)-5-(trifluoro-methyl)pyrimidin-2-amine] is at most 50 nM; for `CC(c1cccc(-n2cnc(-c3nc(NC4CCN(S(C)(=O)=O)CC4)ncc3C(F)(F)F)c2)c1Cl)N1CCC1` (stereo not shown) [Example 469, 4-(1-(3-(1-(Azetidin-1-yl)ethyl)-2-chlorophenyl)-1H-imidazol-4-yl)-N-(1-(methylsulfonyl)piperidin-4-yl)-5-(trifluoromethyl)pyrimidin-2-amine] it is at most 50 nM; for `CC(C)NCc1ccc(-n2cnc(-c3nc(N[C@@H]4CCN(S(C)(=O)=O)C[C@H]4F)ncc3C(F)(F)F)c2)c(Cl)c1` [Example 400, 4-(1-(2-Chloro-4-((isopropylamino)methyl)phenyl)-1H-imidazol-4-yl)-N-((3R,4R)-3-fluoro-1-(methylsulfonyl)piperidin-4-yl)-5-(trifluoromethyl)pyrimidin-2-amine] it is at most 50 nM.
At CDK2/Cyclin E1, `CC1(CO)CCN1Cc1ccc(-n2cnc(-c3nc(NC4CCN(S(C)(=O)=O)CC4)ncc3C(F)(F)F)c2)c(Cl)c1` (stereo not shown) [Example 201, (1-(3-Chloro-4-(4-(2-((1-(methylsulfonyl)-piperidin-4-yl)amino)-5-(trifluoromethyl)-pyrimidin-4-yl)-1H-imidazol-1-yl)benzyl)-2-methylazetidin-2-yl)methanol] came in with an IC50 of at most 50 nM.

The record behind these values is patent US11427567B2, “Imidazolyl pyrimidinylamine compounds as CDK2 inhibitors” (Incyte Corporation, priority 2019, dated 2022).
